We go through 1 compound from article PMC10253401, “BS148 Reduces the Aggressiveness of Metastatic Melanoma via Sigma-2 Receptor Targeting” (International Journal of Molecular Sciences, 2023).

The target in the experiment is T1, sigma-2 receptor (S2R) (Homo sapiens, UniProt Q5BJF2).
T1 construct: gene TMEM97
The experiment is described as follows: radioligand displacement ([3H]-ditolylguanidine, […], with […] (+)pentazocine to mask S1R). Format: binding. On the technique in general: Displacement assays read how much labelled ligand stays bound in the presence of the test substance.

T1 sequence (Q5BJF2 whole entry): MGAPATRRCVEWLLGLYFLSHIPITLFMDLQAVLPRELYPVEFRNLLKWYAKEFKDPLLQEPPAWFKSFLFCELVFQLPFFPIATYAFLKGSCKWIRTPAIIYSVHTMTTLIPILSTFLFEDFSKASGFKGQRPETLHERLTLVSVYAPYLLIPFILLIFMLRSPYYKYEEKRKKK

On to `O=C(CCCCCNc1ccc([N+](=O)[O-])c2nonc12)Oc1ccc(CC2CCN(CC3CSC4(CCCCC4)S3)CC2)cc1` (stereo not shown) [BS148-fluo, 4-((1-((1,4-dithiaspiro[4.5]decane-2-yl)methyl)piperidin-4-yl)methyl)phenyl-6-((7-nitrobenzo[c][1,2,5]oxadiazol-4-yl)amino)hexanoate], for which the “pKi S2R ^a ± SD” value stood at 7.00 ± 0.11 pKi.
